A short description of experiment [1]: End-diastolic pressure-volume relationship (EDPVR) in chronically instrumented dogs with pacing-induced cardiac failure. It counts as in vivo. The note with it: CHF dog preparations. The protocol:
Adult male mongrel dogs (22-25 kg) were chronically instrumented for pressure-dimension analysis as described. See, Paolocci et al., “Positive Inotropic and Lusitropic Effects of HNO/NO− in Failing Hearts: Independence from Beta-Adrenergic Signaling,” Proc. Natl. Acad. Sci. USA., 100, 5537-5542 (2003); and Senzaki et al., Circulation, 101, 1040-1048 (2000). Animals were anesthetized with 1% to 2% halothane after induction with sodium thiopental (10-20 mg/kg, i.v.). The surgical/experimental animal protocol was approved by the Johns Hopkins University Animal Care and Use Committee. […] Cardiac failure was induced by rapid ventricular pacing for 3 weeks as described. See, Paolocci et al., supra, and Senzaki et al., supra.
Hemodynamic data were digitized at 250 Hz. […] These relations strongly correlate with results from pressure-volume data in normal and failing hearts, as previously validated. Cardiovascular function was assessed by stroke dimension, fractional shortening (stroke dimension/end-diastolic dimension [EDD]), estimated cardiac output (stroke dimension×HR), peak rate of pressure rise (dP/dtmax), end-systolic elastance (Ees, slope of end-systolic pressure-dimension relation [ESPDR]), the slope of dP/dtmax-EDD relation (DEDD) (see, Little, Circ Res., 56:808-815 (1985)), pre-recruitable stroke work (PRSW), (based on dimension-data), estimated arterial elastance (Ea, end systolic pressure/stroke dimension) and estimated total resistance (RT, […]). Ees, DEDD and PRSW provide load-insensitive contractility measures.
The end-diastolic pressure-volume relationship (EDPVR) was determined applying non-linear regression analysis to the end-diastolic pressure and volume points (Ped and Ved, respectively), according to Kass, Cardiol Clin., 18, 571-86 (2000) (Review).
In order to evaluate the impact of each pharmacological intervention on the EDPVR, changes in end-diastolic pressure from baseline (ΔPed) at volumes providing baseline end-diastolic pressure of […] mmHg EDP (V10, V15, V20, respectively) were determined (FIG. 5).

The next experiment has as its target T1, SR Ca2+ pump (SERCA2a) (Mus musculus, UniProt O55143).
T1 construct: Crude cardiac microsomal vesicles containing fragmented sarcoplasmic reticulum (SR) were prepared; from tissue; host or cells: pooled hearts of C57 male mice (crude SR microsomal vesicles)
The experiment is described as follows: ATP-dependent Ca2+ uptake by murine cardiac SR vesicles (stopped-flow, arsenazo III). It counts as biochemical. The protocol:
Crude cardiac microsomal vesicles containing fragmented sarcoplasmic reticulum (SR) were prepared as previously described for rat heart. Froehlich, J. P. et al., J. Mol. Cell. Cardiol., 10, 427-438 (1978). Pooled hearts from C57 male mice sacrificed by cervical dislocation were placed in 0.9% saline on ice, trimmed of atrial and connective tissue, and weighed. The finely minced heart muscle was homogenized in 10 mM NaHCO3 using a Polytron blender and the SR vesicles were separated from the myofilaments, mitochondria and nuclear membranes by differential centrifugation at 8,500 and 45,000×g. SR vesicles suspended in 0.25 M sucrose+10 mM MOPS, pH 7.0 were frozen and stored in liquid nitrogen prior to use. Twenty minutes prior to measuring Ca^2+ uptake, cardiac SR vesicles (1 mg/ml in storage buffer) were incubated with 250 μM AS delivered from a freshly-prepared 10 mM stock solution of AS (Na2N2O3) dissolved in 10 mM NaOH. […] Stopped-flow mixing was used to measure the initial time course of Ca^2+ accumulation by murine cardiac SR vesicles using the Ca^2+ indicator dye, arsenazo III. Membrane vesicles (0.4 mg/ml) suspended in a medium containing 100 mM KCl, 1 mM MgCl2, 50 μM arsenazo III, 5 mM sodium azide, and 20 mM MOPS, pH 7.4, were mixed with an equal volume of an identical medium containing 1 mM Na2ATP at 24° C. in a manually-operated stopped-flow apparatus (Applied Photophysics, Ltd.). The change in [Ca^2+] in the mixing cuvette was monitored using a single-beam UV-VIS spectrophotometer (AVIV, Model 14DS) with a monochromator setting of 650 nm. The total [Ca^2+] in the uptake medium was 0.5 μM, yielding a free [Ca^2+] in equilibrium with the Ca-arsenazo III complex of 0.2 μM (KA=3.3×10^4 M^−1). […] The time-dependent decrease in absorbance at 650 nm, reflecting Ca^2+ uptake by the SR vesicles, was monitored for 30-60 s at 0.1 s intervals. […] The signal change due to vesicle light scattering was evaluated from separate measurements conducted under identical conditions at the isosbestic wavelength of 693 nm. For evaluation of the time course of Ca^2+ uptake, a representative trace at 693 nm was subtracted from each of the individual traces at 650 nm acquired under identical conditions. The kinetic and thermodynamic parameters for Ca^2+ uptake were evaluated by fitting stopped-flow signals to one- and two-exponential decay functions plus a residual term using non-linear regression (Prism, Version 3.03). Residual plots of the difference between the fitted curve and data points were used to evaluate systematic errors in the fits and to calculate the sum-of-squares error used in selecting the best fit.
To test whether HNO directly enhances SR Ca^2+ uptake, its effects on SR membrane vesicles isolated from pooled C57/Bl6 mouse hearts were studied. Crude SR microsomal vesicles were incubated with 250 μM AS prior to measuring ATP-dependent Ca uptake by stopped-flow mixing at 24° C. Arsenazo III, a mid-range Ca indicator, was used to monitor Ca removal from the eravesicular compartment and buffer the free [Ca^2+] at a level producing half-saturation of the Ca^2+ pump (˜0.2 μM).

Experiment [2] concerns isolated mouse ventricular myocytes. Briefly: Sarcomere shortening in field-stimulated isolated mouse ventricular myocytes. It counts as cell-based. The protocol:
Wild type 2-4 month old mice were anesthetized with intraperitoneal pentobarbital sodium (100 mg/kg/ip). Hearts were perfused as previously described. Mongillo, M. et al., Circ. Res., 98, 226-234 (2006). To assess for sarcomere shortening, cells were imaged using field stimulation (Warner instruments) in an inverted fluorescence microscope (Diaphot 200; Nikon, Inc). Sarcomere length was measured by real-time Fourier transform (IonOptix MyoCam, CCCCD100M) and cell twitch amplitude is expressed as a percentage of resting cell length. Twitch kinetics was quantified by measuring the time to peak shortening and the time from peak shortening to 50% relaxation. For whole calcium transient measurements, myocytes were loaded with the Ca^2+ indicator fluo-4/AM (Molecular Probes, 20 μM for 30 min) and Ca^2+ transients were measured under field-stimulation at 0.5 Hz in perfusion solution by confocal laser scanning microscope (LSM510, Carl Zeiss). Digital image analysis used customer-designed programs coded in Interactive Data Language (IDL).
Nitroxyl (HNO) confers positive inotropy in vivo. Here, it was determined whether HNO action stems from a direct influence on sarcoplasmic reticulum (SR) Ca^2+ cycling, involving enhanced Ca^2+ release from ryanodine receptors (RyR2). Myocytes were isolated from ST mice, suspended in Tyrode's solution (1 mM Ca^2+) and field stimulated (0.5 Hz, 25° C.). Sarcomere shortening (SS) was assessed by real-time image analysis, Ca^2+ transients from Indo-1 fluorescence. RyR2 activity was determined by optical imaging of Ca^2+ release from single Ca^2+ release units.

In the next experiment the target is T2, RyR2 (Mus musculus, UniProt E9Q401).
T2 construct: endogenous in cells; host or cells: freshly isolated adult mouse cardiac myocytes
T2 sequence (E9Q401 whole entry): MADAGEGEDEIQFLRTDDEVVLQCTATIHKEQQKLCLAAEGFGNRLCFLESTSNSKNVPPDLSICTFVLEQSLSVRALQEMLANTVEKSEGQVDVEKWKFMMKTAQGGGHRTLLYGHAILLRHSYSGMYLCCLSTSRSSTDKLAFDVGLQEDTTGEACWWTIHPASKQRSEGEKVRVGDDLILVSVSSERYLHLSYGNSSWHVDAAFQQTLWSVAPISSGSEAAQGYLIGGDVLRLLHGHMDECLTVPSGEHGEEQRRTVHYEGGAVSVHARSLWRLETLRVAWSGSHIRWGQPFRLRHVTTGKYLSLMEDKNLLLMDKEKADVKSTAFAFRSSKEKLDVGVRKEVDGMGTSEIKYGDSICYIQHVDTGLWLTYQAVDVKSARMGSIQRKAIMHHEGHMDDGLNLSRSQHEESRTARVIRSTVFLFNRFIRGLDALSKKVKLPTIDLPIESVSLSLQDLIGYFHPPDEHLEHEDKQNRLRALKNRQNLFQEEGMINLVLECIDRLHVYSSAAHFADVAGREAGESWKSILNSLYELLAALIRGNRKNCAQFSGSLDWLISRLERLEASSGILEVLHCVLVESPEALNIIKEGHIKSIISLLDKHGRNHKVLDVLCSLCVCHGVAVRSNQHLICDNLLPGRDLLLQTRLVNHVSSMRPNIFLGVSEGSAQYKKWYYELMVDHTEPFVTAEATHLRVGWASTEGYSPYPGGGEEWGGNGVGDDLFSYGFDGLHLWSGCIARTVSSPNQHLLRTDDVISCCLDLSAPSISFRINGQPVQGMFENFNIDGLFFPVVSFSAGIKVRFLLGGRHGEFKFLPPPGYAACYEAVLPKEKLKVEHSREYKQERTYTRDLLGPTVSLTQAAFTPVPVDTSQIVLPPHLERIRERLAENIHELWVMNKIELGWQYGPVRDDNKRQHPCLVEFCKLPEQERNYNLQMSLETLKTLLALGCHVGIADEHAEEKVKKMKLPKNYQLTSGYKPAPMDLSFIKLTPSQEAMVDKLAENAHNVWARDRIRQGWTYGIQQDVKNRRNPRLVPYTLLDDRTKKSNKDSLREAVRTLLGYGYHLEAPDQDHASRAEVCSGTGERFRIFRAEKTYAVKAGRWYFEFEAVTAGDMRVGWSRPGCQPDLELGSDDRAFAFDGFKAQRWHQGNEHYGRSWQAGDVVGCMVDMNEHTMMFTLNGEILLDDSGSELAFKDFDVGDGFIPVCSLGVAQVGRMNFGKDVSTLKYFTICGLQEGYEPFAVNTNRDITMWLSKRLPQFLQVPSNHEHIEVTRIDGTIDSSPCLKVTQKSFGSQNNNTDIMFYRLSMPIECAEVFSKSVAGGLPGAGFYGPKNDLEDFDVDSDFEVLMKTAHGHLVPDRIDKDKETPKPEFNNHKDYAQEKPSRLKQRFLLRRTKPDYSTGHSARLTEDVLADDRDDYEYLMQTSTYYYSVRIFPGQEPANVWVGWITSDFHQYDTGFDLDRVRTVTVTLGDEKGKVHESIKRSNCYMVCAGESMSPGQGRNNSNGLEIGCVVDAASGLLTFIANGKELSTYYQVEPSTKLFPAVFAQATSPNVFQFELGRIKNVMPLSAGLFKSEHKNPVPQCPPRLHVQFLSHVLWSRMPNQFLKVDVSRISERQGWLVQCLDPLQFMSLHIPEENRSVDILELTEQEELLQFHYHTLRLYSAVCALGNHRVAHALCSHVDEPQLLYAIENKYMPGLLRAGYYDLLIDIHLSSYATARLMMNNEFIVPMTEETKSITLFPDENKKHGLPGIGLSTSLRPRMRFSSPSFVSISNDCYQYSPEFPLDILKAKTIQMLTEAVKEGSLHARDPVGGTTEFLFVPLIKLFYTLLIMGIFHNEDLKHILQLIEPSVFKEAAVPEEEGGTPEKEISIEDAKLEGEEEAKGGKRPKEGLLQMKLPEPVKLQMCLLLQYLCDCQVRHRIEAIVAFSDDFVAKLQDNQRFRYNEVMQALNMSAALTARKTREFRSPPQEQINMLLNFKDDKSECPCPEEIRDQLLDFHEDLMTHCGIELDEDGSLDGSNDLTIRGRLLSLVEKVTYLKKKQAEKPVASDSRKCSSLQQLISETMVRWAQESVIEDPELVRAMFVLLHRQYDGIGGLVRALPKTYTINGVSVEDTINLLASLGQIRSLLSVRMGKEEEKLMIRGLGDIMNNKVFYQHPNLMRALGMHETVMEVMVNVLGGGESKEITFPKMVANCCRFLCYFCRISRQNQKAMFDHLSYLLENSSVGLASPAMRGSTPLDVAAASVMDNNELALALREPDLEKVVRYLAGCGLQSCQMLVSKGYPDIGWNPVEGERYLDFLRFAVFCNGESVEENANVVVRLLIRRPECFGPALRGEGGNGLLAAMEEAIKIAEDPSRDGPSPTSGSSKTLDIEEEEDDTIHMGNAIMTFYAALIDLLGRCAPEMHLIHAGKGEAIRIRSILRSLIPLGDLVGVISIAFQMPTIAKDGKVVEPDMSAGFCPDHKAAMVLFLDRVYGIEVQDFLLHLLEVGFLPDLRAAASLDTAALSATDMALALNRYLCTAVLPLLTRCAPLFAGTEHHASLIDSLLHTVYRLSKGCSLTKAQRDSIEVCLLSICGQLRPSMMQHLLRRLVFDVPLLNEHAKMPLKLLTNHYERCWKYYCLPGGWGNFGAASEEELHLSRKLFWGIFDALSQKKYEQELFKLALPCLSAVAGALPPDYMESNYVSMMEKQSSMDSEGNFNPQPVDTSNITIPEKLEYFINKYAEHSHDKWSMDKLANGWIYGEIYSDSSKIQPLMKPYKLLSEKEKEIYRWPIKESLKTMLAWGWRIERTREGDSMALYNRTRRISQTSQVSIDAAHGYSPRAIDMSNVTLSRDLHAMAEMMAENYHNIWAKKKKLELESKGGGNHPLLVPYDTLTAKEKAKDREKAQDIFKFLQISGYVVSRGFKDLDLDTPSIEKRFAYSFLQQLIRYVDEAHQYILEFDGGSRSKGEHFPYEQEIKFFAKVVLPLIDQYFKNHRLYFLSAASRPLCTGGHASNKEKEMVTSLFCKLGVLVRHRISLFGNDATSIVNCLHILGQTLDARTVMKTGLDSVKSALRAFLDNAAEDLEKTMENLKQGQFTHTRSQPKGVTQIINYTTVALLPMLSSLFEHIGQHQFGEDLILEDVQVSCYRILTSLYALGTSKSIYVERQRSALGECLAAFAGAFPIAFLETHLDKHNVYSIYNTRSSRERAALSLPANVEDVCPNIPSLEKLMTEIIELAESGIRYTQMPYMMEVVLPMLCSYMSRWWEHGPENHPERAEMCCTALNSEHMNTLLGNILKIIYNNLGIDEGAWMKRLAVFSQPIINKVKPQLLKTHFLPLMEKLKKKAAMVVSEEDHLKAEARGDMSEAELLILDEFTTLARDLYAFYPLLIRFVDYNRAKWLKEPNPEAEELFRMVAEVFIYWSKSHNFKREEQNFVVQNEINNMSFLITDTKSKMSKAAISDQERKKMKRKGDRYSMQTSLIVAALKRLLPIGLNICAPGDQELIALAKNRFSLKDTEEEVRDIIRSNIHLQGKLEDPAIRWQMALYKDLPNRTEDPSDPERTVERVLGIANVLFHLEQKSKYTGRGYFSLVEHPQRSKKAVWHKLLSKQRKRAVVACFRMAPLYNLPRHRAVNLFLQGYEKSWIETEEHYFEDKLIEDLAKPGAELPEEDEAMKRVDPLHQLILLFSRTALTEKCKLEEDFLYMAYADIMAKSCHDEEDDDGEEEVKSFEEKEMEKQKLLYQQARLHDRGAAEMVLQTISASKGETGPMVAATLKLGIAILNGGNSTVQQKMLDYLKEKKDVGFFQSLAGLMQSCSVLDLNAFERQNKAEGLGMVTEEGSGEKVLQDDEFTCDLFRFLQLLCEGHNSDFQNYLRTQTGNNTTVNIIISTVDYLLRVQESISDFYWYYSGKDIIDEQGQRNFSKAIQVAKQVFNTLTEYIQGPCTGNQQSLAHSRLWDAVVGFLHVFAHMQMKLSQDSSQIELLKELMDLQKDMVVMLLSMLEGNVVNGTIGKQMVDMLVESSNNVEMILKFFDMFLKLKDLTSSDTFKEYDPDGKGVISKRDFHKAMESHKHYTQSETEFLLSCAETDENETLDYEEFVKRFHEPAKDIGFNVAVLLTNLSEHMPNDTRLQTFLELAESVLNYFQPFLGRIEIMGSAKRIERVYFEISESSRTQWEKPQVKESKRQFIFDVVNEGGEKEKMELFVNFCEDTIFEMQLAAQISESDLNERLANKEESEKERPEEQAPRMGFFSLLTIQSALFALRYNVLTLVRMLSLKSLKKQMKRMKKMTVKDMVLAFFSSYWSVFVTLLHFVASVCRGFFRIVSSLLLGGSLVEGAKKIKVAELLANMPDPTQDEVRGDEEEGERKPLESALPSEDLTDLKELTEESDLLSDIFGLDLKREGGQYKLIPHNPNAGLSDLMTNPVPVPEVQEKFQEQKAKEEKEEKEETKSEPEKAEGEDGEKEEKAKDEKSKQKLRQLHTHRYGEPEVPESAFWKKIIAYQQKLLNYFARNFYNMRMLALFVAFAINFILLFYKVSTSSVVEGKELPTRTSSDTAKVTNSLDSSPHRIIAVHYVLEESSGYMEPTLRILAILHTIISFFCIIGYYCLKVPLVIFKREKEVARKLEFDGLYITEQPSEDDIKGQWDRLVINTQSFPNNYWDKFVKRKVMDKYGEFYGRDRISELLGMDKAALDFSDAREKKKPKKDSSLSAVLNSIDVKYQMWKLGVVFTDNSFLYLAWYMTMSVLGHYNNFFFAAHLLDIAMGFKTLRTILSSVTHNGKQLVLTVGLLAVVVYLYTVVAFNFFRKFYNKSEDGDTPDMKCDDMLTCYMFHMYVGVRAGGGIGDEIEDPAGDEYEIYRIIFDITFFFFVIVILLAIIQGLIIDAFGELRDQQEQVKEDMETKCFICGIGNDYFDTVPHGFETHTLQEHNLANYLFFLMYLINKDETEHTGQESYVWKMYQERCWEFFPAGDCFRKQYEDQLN
The experiment is described as follows: Spontaneous Ca2+ sparks and spark frequency in intact murine myocytes. The experiment is classed as cell-based. Particulars: for effect on Ca2+ sparks in control and AS (0.5 mM) cells: thapsigargin 10 μM, 30 min, ryanodine 10 μM. The protocol: Freshly isolated mouse cardiac myocytes were loaded with the Ca^2+ indicator fluo-4/AM (Molecular Probes, 20 μM for 30 min). Confocal images were acquired using a confocal laser-scanning microscope (LSM510, Carl Zeiss) with a Zeiss Plan-Neofluor 40× oil immersion objective (NA≈1.3). Fluo-4/AM was excited by an argon laser (488 nm), and fluorescence was measured at >505 nm. Images were taken in the line-scan mode, with the scan line parallel to the long axis of the myocytes. Each image consisted of 512 line scans obtained at 1.92 ms intervals, each comprising 512 pixels at 0.10 μm separation. Digital image analysis used customer-designed programs coded in Interactive Data language (IDL) and a modified spark detection algorithm. Cheng, H. et al., Biophys. J., 76, 606-617 (1999).
Nitroxyl (HNO) confers positive inotropy in vivo. Here, it was determined whether HNO action stems from a direct influence on sarcoplasmic reticulum (SR) Ca^2+ cycling, involving enhanced Ca^2+ release from ryanodine receptors (RyR2). Myocytes were isolated from ST mice, suspended in Tyrode's solution (1 mM Ca^2+) and field stimulated (0.5 Hz, 25° C.). Sarcomere shortening (SS) was assessed by real-time image analysis, Ca^2+ transients from Indo-1 fluorescence. RyR2 activity was determined by optical imaging of Ca^2+ release from single Ca^2+ release units. The HNO donor Angeli's Salt (AS) induced dose-dependent inotropy (SS: 73±31% at 0.5 mM; 131±31% at 1 mM; all n=15, p<0.05 vs. base; <0.1 mM: no effect). In contrast, the NO donor DEA/NO reduced SS by 55-65% at 5-50 μM (both p<0.05 vs. base), with no effect at higher doses. […] However, co-infusion with the thiol-donating compound N-acetyl-L-cysteine (NAC, 3 mM) abolished AS inotropy.

Experiment [3] relates to cardiac myocytes from WT and Gαq overexpressing FVB/N mice. Briefly: Sarcomere shortening in cardiac myocytes from WT and Gαq overexpressing mice. The experiment is classed as cell-based, mouse. Particulars: for enhancement of sarcomere shortening: WT cells. The protocol:
Cardiac myocytes were isolated from WT and Gαq overexpressing 2-6 month old FVB/N mice, suspended in Tyrode's solution (1 mM calcium) and field stimulated at 0.5 Hz at 23° C. Sarcomere shortening (SS) was assessed by real-time image analysis; data are presented at steady-state (10 minutes drug infusion).

“Also recorded” adds a separate entry of the source.

`CC(C)N[N+]([O-])=N[O-].[Na+]` [IPA/NO, isopropylamine diazeniumdiolate]: the “effect on end-diastolic pressure-volume relationship (EDPVR)” value (“effect … (EDPVR)” for short) in experiment [1] is on record as “downward shift; also recorded: declined significantly”.
Turning to `CNc1ccc2oc(C[C@H]3O[C@@]4(CC[C@H]3C)O[C@H]([C@H](C)C(=O)c3ccc[nH]3)[C@H](C)C[C@H]4C)nc2c1C(=O)O` [A23187], the “decrease of total Ca2+ uptake” value at SR Ca2+ pump (SERCA2a) (A23187 pre-incubation, 5 μg ionophore/mg SR protein) is over 50%.
For the compound `CCN(CC)[N+]([O-])=N[O-].[Na+]` [DEA/NO, sodium 2-(N,N-diethylamino)-diazenolate-2-oxide], the “effect of co-application on ISO (2.5 nM)-stimulated sarcomere shortening” value in experiment [2] (DEA/NO 0.25 mM, AS 0.5 mM) is on record as “markedly blunted”. Also, the “reduction of sarcomere shortening” value in experiment [2] (DEA/NO 5-50 μM) is recorded as 55-65%. The “effect of PKG inhibitor Rp-8Br-cGMPs on the agent's inotropy” value in experiment [2] (Rp-8Br-cGMPs 10 μM pre-treatment) is reported as “modest positive response”. Also, the “reproduction of AS increase in sarcomere shortening by equimolar NO donor” value in experiment [2] (equimolar to AS) is recorded as “not reproduced”. In addition, the results for the “effect on sarcomere shortening” value in experiment [2] (higher doses) and in experiment [2] (low doses) were “no effect; also recorded: minimal changes” and “slight depression”, respectively. At RyR2 (DEA/NO, increasing / equimolar doses), the “effect on Ca2+ spark frequency” value is “no effect; also recorded: did not significantly affect”. Also, in experiment [1], the “effect … (EDPVR)” value is reported as “parallel down-ward shift”.
With `C=C[C@@]1(C)CC(=O)[C@]2(O)[C@@]3(C)[C@@H](O)CCC(C)(C)[C@@H]3[C@H](O)[C@H](OC(C)=O)[C@@]2(C)O1` [FSK, forskolin], the “increase in sarcomere shortening” value in experiment [3] (Gαq myocytes, 25 nM FSK) amounted to 85±9%; in experiment [3] (Gαq myocytes, 100 nM FSK), 158±62%.
Turning to ryanodine, the “effect on Ca2+ sparks in control and AS (0.5 mM) cells” value on RyR2 is on record as “abolished”.
As to `O=[N+]([O-])OCC(CO[N+](=O)[O-])O[N+](=O)[O-]` [NTG, nitroglycerin], the “effect … (EDPVR)” value in experiment [1] is reported as “parallel down-ward shift”; in experiment [1] (listed as nitroglycerin) it was “parallel downward shift”.
For the compound `CC(C)NCC(O)c1ccc(O)c(O)c1` (centres unmarked) [ISO, isoproterenol], the “increase in sarcomere shortening” value in experiment [2] (ISO 2.5 nM, n=30) is recorded as 100±27%. Also, the “effect of PKA inhibitor Rp-CPT-cAMPs on the agent's enhancement of sarcomere shortening” value in experiment [2] (Rp-CPT-cAMPs 100 μM pre-treatment) is recorded as “blunts”. Also, the contractile response entry in experiment [3] (Gαq myocytes, ISO 2.5 and 10 nM) was “did not elicit any contractile response”. The results for the “enhancement of sarcomere shortening” value in experiment [3] (ISO 2.5 nM) and in experiment [3] (ISO 10 nM) were 74±24% and 250±75%, respectively.
Take `O=NO` [NO2^−, nitrite]: the “effect on sarcomere shortening” value in experiment [2] (25-250 μM NO2- and higher or lower doses) is reported as “no effect”.
In the case of `C/C=C(/C)C(=O)O[C@H]1C(C)=C2[C@H]([C@@H]1OC(=O)CCCCCCC)[C@@](C)(OC(C)=O)C[C@H](OC(=O)CCC)[C@@]1(O)[C@H]2OC(=O)[C@@]1(C)O` [thapsigargin], the “effect on SR vesicle Ca2+ uptake” value on SR Ca2+ pump (SERCA2a) (thapsigargin 10 μM) is on record as “abolished”. For the same compound, at RyR2, the “effect on Ca2+ sparks in control and AS (0.5 mM) cells” value is recorded as “abolished”.

The values above are taken from patent US20160166604A1, “Thiol-Sensitive Positive Inotropes” (priority 2005, published 2016).
